Read-outs that look alike come from different tables or passages of the source.

We go through 14 compounds from patent US6251894A, “1-(1,2-disubstituted piperidinyl)-4 (fused imidazole)-piperidine derivatives” (Janssen Pharmaceuticals N.V., priority 1995, dated 2001).

Test [1] relates to Substance P Induced Plasma Extravasation. As to the kind of experiment: Antagonism of substance P induced plasma extravasation in guinea-pigs. Format: in vivo, guinea-pig. The settings on record: Cavia porcellus, 1 hour prior to substance P. A digest of the protocol: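 Female guinea-pigs; compound or solvent given s.c. or p.o. 1 h before substance P (2 mg/kg, femoral artery) plus Evans Blue (30 mg/kg). Blue colouring of nose, forepaws, conjunctiva scored at 10 min; trachea and urinary bladder at 30 min after CO2 sacrifice. Values are lowest active doses in mg/kg.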

Test [2] has as its system Substance P Induced Relaxation of the Pig Coronary Arteries. The test can be described thus: Antagonism of substance P induced relaxation of the pig coronary arteries. The settings on record: 30 min incubation. A digest of the protocol: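 Inverted pig coronary artery segments, endothelium outside, in Krebs-Henseleit at 37 °C (95/5 O2/CO2), isometric tension recorded. After prostaglandin F2α (10^-5 M) precontraction, substance P (3×10^-10 M and 10^-9 M cumulative) relaxation repeated after 30 min incubation with test compound.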

The mark [3] stands for this setting: sc, 10 min, s.c., conjunctiva, read-out: lowest active dose (LAD), conjunctiva.
Setting [4] is: sc, 10 min, s.c., forepaws, read-out: lowest active dose (LAD), forepaws.
[5] abbreviates: sc, 10 min, s.c., nose, read-out: lowest active dose (LAD), nose.
Setting [6] is: sc, 0.5 h, s.c., trachea, read-out: lowest active dose (LAD), trachea.
Setting [7] is: sc, 0.5 h, s.c., urinary bladder, read-out: lowest active dose (LAD), urinary bladder.
Setting [8] is: test compound concentration 3 × 10^-9 (unit not given).
The mark [9] stands for this setting: po, 10 min, p.o., conjunctiva, read-out: lowest active dose (LAD), conjunctiva.
Setting [10] is: po, 10 min, p.o., forepaws, read-out: lowest active dose (LAD), forepaws.
[11] abbreviates: po, 10 min, p.o., nose, read-out: lowest active dose (LAD), nose.
Where [12] appears, read: po, 0.5 h, p.o., trachea, read-out: lowest active dose (LAD), trachea.
The mark [13] stands for this setting: po, 0.5 h, p.o., urinary bladder, read-out: lowest active dose (LAD), urinary bladder.

For `Cc1cc(C)cc(C(=O)N2CC[C@H](N3CCC(=C4c5ccccc5CCn5ccnc54)CC3)C[C@@H]2Cc2ccccc2)c1` (racemic) [Compound 1, (±)-cis-4-[4-(5,6-dihydro-11H-imidazo [2,1-b][3]benzazepin-11-ylidene)-1-piperidinyl]-1-(3,5-dimethylbenzoyl)-2-(phenylmethyl)piperidine], the minimal effective dose in test [1] (setting [3]), in test [1] (setting [4]), in test [1] (setting [5]), in test [1] (setting [6]) and in test [1] (setting [7]) was 10 mg/kg throughout. In addition, the “% inhibition of the response to 10^-9 M substance P” value in test [2] (test compound concentration 3 × 10^-8 (unit not given)) worked out at 52.3%.
For `Cc1cnc2n1CCc1ccccc1C2=C1CCN([C@H]2CCN(C(=O)c3cc(C(F)(F)F)cc(C(F)(F)F)c3)[C@@H](Cc3ccccc3)C2)CC1` (relative stereo) [Compound 53], the minimal effective dose in test [1] (setting [3]), in test [1] (setting [4]), in test [1] (setting [5]), in test [1] (setting [6]) and in test [1] (setting [7]) was 10 mg/kg in each case. Moreover, in test [2] (setting [8]), the “% inhibition of the response to 10^-9 M substance P” value amounted to 44.4%.
`Cc1cc(C)cc(C(=O)N2CC[C@@H](N3CCC(=C4c5ccn(C)c5CCn5ccnc54)CC3)C[C@@H]2Cc2ccccc2)c1` (relative stereo) [Compound 34]: the minimal effective dose in test [1] (setting [3]) was found to be 2.5 mg/kg; in test [1] (setting [4]), 0.63 mg/kg; in test [1] (setting [5]), 0.63 mg/kg; in test [1] (setting [6]) it was 0.63 mg/kg; in test [1] (setting [7]) it was 0.63 mg/kg. Besides, in test [2] (setting [8]), the “% inhibition of the response to 10^-9 M substance P” value is listed as 43.5%.
Turning to `O=Cc1cnc2n1CCc1ccccc1C2=C1CCN([C@@H]2CCN(C(=O)c3cc(C(F)(F)F)cc(C(F)(F)F)c3)[C@@H](Cc3ccccc3)C2)CC1` (relative stereo) [Compound 16], the minimal effective dose in test [1] (setting [3]) stood at 2.5 mg/kg; in test [1] (setting [4]) it was 2.5 mg/kg; in test [1] (setting [5]), 2.5 mg/kg; in test [1] (setting [6]) it was 10 mg/kg; in test [1] (setting [7]), 10 mg/kg. In test [2] (setting [8]), the “% inhibition of the response to 10^-9 M substance P” value turned out to be 98.9%.
For `O=C(c1cc(C(F)(F)F)cc(C(F)(F)F)c1)N1CC[C@@H](N2CCC(=C3c4ccsc4CCn4ccnc43)CC2)C[C@H]1Cc1ccccc1` (relative stereo) [Compound 18], the minimal effective dose in test [1] (setting [3]) worked out at 2.5 mg/kg; in test [1] (setting [4]) it was 10 mg/kg; in test [1] (setting [5]), 10 mg/kg; in test [1] (setting [6]) it was 10 mg/kg; in test [1] (setting [7]) it was 10 mg/kg. Further, the “% inhibition of the response to 10^-9 M substance P” value in test [2] (setting [8]) amounted to 39.8%.
On to `Cc1cc(C)cc(C(=O)N2CC[C@@H](N3CCC(C4c5ccccc5CCn5ccnc54)CC3)C[C@@H]2Cc2ccccc2)c1` (stereo partly drawn) [Compound 27], for which the minimal effective dose in test [1] (setting [3]) is 2.5 mg/kg; in test [1] (setting [4]) it was 2.5 mg/kg; in test [1] (setting [5]) it was 2.5 mg/kg; in test [1] (setting [6]) it was 10 mg/kg; in test [1] (setting [7]), 2.5 mg/kg. Moreover, the “% inhibition of the response to 10^-9 M substance P” value in test [2] (setting [8]) was found to be 5.1%.
Turning to `O=C(c1cc(C(F)(F)F)cc(C(F)(F)F)c1)N1CC[C@@H](N2CCC(C3c4ccccc4Cn4c3nc3ccccc34)CC2)C[C@H]1Cc1ccccc1` (mixture of isomers) [Compound 14, (±)-cis-1-[3,5-bis(trifluoromethyl)benzoyl]-4-[4-(6,11-dihydrobenzimidazo[1,2-b]isoquinolin-6-yl)-1-piperidinyl]-2-phenylmethyl)piperidine], the minimal effective dose in test [1] (setting [9]), in test [1] (setting [10]), in test [1] (setting [11]), in test [1] (setting [12]) and in test [1] (setting [13]) was 10 mg/kg in each case. The “% inhibition of the response to 10^-9 M substance P” value in test [2] (setting [8]) was 56.6%.
On to `O=C(c1cc(C(F)(F)F)cc(C(F)(F)F)c1)N1CC[C@@H](N2CCC(=C3c4ccccc4CCn4ccnc43)CC2)C[C@@H]1Cc1ccccc1` (relative stereo) [Compound 22], for which the minimal effective dose in test [1] (setting [3]), in test [1] (setting [4]), in test [1] (setting [5]), in test [1] (setting [6]) and in test [1] (setting [7]) was 10 mg/kg each time. For the same compound, the “% inhibition of the response to 10^-9 M substance P” value in test [2] (setting [8]) turned out to be 83.2%.
With `Cn1ccc2c1CCn1ccnc1C2=C1CCN([C@H]2CCN(C(=O)c3cc(C(F)(F)F)cc(C(F)(F)F)c3)[C@@H](Cc3ccccc3)C2)CC1` (racemic) [Compound 3, (±)-cis-1-[3,5-bis(trifluoromethyl)benzoyl]-4-[4-(5,6,7,10-tetrahydro-7-methylimidazo[1,2-a]-pyrrolo[3,2-d]azepin-10-ylidene)-1-piperidinyl]-2-(phenylmethyl)piperidine], the minimal effective dose in test [1] (setting [3]) was 2.5 mg/kg; in test [1] (setting [4]), 2.5 mg/kg; in test [1] (setting [5]), 2.5 mg/kg; in test [1] (setting [6]), 10 mg/kg; in test [1] (setting [7]), 10 mg/kg. The “% inhibition of the response to 10^-9 M substance P” value in test [2] (setting [8]) came to 37.3%.
On to `O=C1Cn2ccnc2C(=C2CCN([C@H]3CCN(C(=O)c4cc(C(F)(F)F)cc(C(F)(F)F)c4)[C@@H](Cc4ccccc4)C3)CC2)c2ccsc21` (relative stereo) [Compound 106], for which the minimal effective dose in test [1] (setting [9]), in test [1] (setting [10]), in test [1] (setting [11]), in test [1] (setting [12]) and in test [1] (setting [13]) was 10 mg/kg each time. Also, the “% inhibition of the response to 10^-9 M substance P” value in test [2] (setting [8]) worked out at 92.3%.
As to `Cc1cc(C)cc(C(=O)N2CC[C@H](N3CCC(=C4c5sccc5CCn5ccnc54)CC3)C[C@H]2Cc2ccccc2)c1` (relative stereo) [Compound 37], the minimal effective dose stood at 2.5 mg/kg in test [1] (setting [3]); 2.5 mg/kg in test [1] (setting [4]); 2.5 mg/kg in test [1] (setting [5]); 10 mg/kg in test [1] (setting [6]); 10 mg/kg in test [1] (setting [7]). Moreover, in test [2] (setting [8]), the “% inhibition of the response to 10^-9 M substance P” value amounted to 81.9%.
Turning to `O=C(c1cc(C(F)(F)F)cc(C(F)(F)F)c1)N1CC[C@@H](N2CCC(=C3c4ccccc4CCn4c(CO)cnc43)CC2)C[C@@H]1Cc1ccccc1` (relative stereo) [Compound 5], the minimal effective dose in test [1] (setting [9]) was 2.5 mg/kg; in test [1] (setting [10]), 2.5 mg/kg; in test [1] (setting [11]), 2.5 mg/kg; in test [1] (setting [12]), 10 mg/kg; in test [1] (setting [13]), 10 mg/kg. In test [2] (setting [8]), the “% inhibition of the response to 10^-9 M substance P” value was determined as 100.0%.
On to `O=C(c1cc(C(F)(F)F)cc(C(F)(F)F)c1)N1CC[C@H](N2CCC(=C3c4ccccc4CCn4c3nc(CO)c4CO)CC2)C[C@@H]1Cc1ccccc1` (relative stereo) [Compound 52], for which the minimal effective dose was determined as 2.5 mg/kg in test [1] (setting [3]); 2.5 mg/kg in test [1] (setting [4]); 2.5 mg/kg in test [1] (setting [5]); 10 mg/kg in test [1] (setting [6]); 2.5 mg/kg in test [1] (setting [7]). Besides, the “% inhibition of the response to 10^-9 M substance P” value in test [2] (setting [8]) worked out at 77.8%.
With `O=C(c1cc(C(F)(F)F)cc(C(F)(F)F)c1)N1CC[C@@H](N2CCC(=C3c4sccc4CCn4ccnc43)CC2)C[C@@H]1Cc1ccccc1` (relative stereo) [Compound 7], the minimal effective dose in test [1] (setting [3]) was 2.5 mg/kg; in test [1] (setting [4]), 10 mg/kg; in test [1] (setting [5]) it was 2.5 mg/kg; in test [1] (setting [6]), 10 mg/kg; in test [1] (setting [7]) it was 10 mg/kg. Also, the “% inhibition of the response to 10^-9 M substance P” value in test [2] (setting [8]) is 83.1%.
